Measurements: ChEMBL document CHEMBL1201862, “PubChem BioAssay data set” (2004)
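Exposure lasted 48 hours, with cells grown in 96-well plates and compounds tested at five concentrations. Here, GI50 denotes the concentration required for 50% inhibition of growth.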 Active and inactive are the calls of the source. No stated cut-off is given here; in the data, active = GI50 up to about 1.1 µM and inactive = higher.

What was measured:
Assay in all cases: inhibition of tumour cell growth, NCI panel, 48 h
[1] = test system: HOP-62
[2] = test system: NCI-H23
[3] = test system: ACHN
[4] = test system: Hs-578T
[5] = test system: MDA-MB-435
[6] = test system: CCRF-CEM
[7] = test system: NCI-H460
[8] = test system: SF-268
[9] = test system: MOLT-4
[10] = test system: NCI/ADR-RES
[11] = test system: 786-0
[12] = test system: MDA-N
[13] = test system: M14
[14] = test system: CAKI-1
[15] = test system: SN12C
[16] = test system: SF-295
[17] = test system: UACC-62
[18] = test system: EKVX
[19] = test system: HCT-15
[20] = test system: K562
[21] = test system: OVCAR-4
[22] = test system: SK-MEL-5
[23] = test system: SW-620
[24] = test system: HCC 2998
[25] = test system: UACC-257
[26] = test system: COLO 205
[27] = test system: DU-145
[28] = test system: OVCAR-5
[29] = test system: A549
[30] = test system: SNB-19
[31] = test system: SK-MEL-2
[32] = test system: RPMI-8226
[33] = test system: SK-MEL-28
[34] = test system: U-251
[35] = test system: HT-29
[36] = test system: HOP-92
[37] = test system: RXF 393
[38] = test system: KM12
[39] = test system: HCT-116
[40] = test system: PC-3
[41] = test system: BT-549
[42] = test system: OVCAR-8
[43] = test system: SK-OV-3
[44] = test system: MDA-MB-231
[45] = test system: NCI-H522
[46] = test system: UO-31
[47] = test system: SF-539
[48] = test system: OVCAR-3
[49] = test system: MCF7
[50] = test system: SR
[51] = test system: IGROV-1
[52] = test system: Malme-3M
[53] = test system: TK-10
[54] = test system: NCI-H226
[55] = test system: LOX IMVI

SMILES: CC(C)(C)c1ccccc1N1C(=O)c2ccc3c4c(ccc(c24)C1=O)N(c1ccccc1C(C)(C)C)C3=O
- GI50 [1]: > 100 µM (inactive)
- GI50 [2]: > 100 µM (inactive)
- GI50 [3]: > 100 µM (inactive)
- GI50 [4]: 3.03 µM (inactive)
- GI50 [5]: > 100 µM (inactive)
- GI50 [6]: > 100 µM (inactive)
- GI50 [7]: > 100 µM (inactive)
- GI50 [8]: > 100 µM (inactive)
- GI50 [9]: 5.46 µM (inactive)
- GI50 [10]: > 100 µM (inactive)
- GI50 [11]: > 100 µM (inactive)
- GI50 [12]: > 100 µM (inactive)
- GI50 [13]: > 100 µM (inactive)
- GI50 [14]: > 100 µM (inactive)
- GI50 [15]: > 100 µM (inactive)
- GI50 [16]: 71.3 µM (inactive)
- GI50 [17]: > 100 µM (inactive)
- GI50 [18]: 14.8 µM (inactive)
- GI50 [19]: > 100 µM
- GI50 [20]: > 100 µM (inactive)
- GI50 [21]: > 100 µM (inactive)
- GI50 [22]: > 100 µM (inactive)
- GI50 [23]: > 100 µM (inactive)
- GI50 [24]: > 100 µM (inactive)
- GI50 [25]: > 100 µM (inactive)
- GI50 [26]: > 100 µM (inactive)
- GI50 [27]: > 100 µM (inactive)
- GI50 [28]: > 100 µM (inactive)
- GI50 [29]: > 100 µM (inactive)
- GI50 [30]: > 100 µM (inactive)
- GI50 [31]: > 100 µM (inactive)
- GI50 [32]: > 100 µM (inactive)
- GI50 [33]: > 100 µM (inactive)
- GI50 [34]: > 100 µM (inactive)
- GI50 [35]: > 100 µM (inactive)
- GI50 [36]: 6.43 µM (inactive)
- GI50 [37]: > 100 µM (inactive)
- GI50 [38]: > 100 µM (inactive)
- GI50 [39]: > 100 µM (inactive)
- GI50 [40]: 20 µM (inactive)
- GI50 [41]: > 100 µM (inactive)
- GI50 [42]: > 100 µM (inactive)
- GI50 [43]: > 100 µM (inactive)
- GI50 [44]: > 100 µM (inactive)
- GI50 [45]: 5.07 µM (inactive)
- GI50 [46]: > 100 µM (inactive)
- GI50 [47]: > 100 µM (inactive)
- GI50 [48]: > 100 µM (inactive)
- GI50 [49]: > 100 µM (inactive)
- GI50 [50]: > 100 µM (inactive)
- GI50 [51]: > 100 µM (inactive)

SMILES: NC(N)=NC(P(=O)(O)O)P(=O)(O)O
- GI50 [1]: > 100 µM (inactive)
- GI50 [2]: > 100 µM (inactive)
- GI50 [3]: > 100 µM (inactive)
- GI50 [4]: 0.254 µM (active)
- GI50 [52]: > 100 µM (inactive)
- GI50 [7]: > 100 µM (inactive)
- GI50 [53]: > 100 µM (inactive)
- GI50 [8]: > 100 µM (inactive)
- GI50 [10]: > 100 µM (inactive)
- GI50 [11]: > 100 µM (inactive)
- GI50 [12]: > 100 µM (inactive)
- GI50 [13]: > 100 µM (inactive)
- GI50 [14]: > 100 µM (inactive)
- GI50 [16]: > 100 µM (inactive)
- GI50 [17]: > 100 µM (inactive)
- GI50 [18]: > 100 µM (inactive)
- GI50 [19]: > 100 µM
- GI50 [22]: > 100 µM (inactive)
- GI50 [24]: > 100 µM (inactive)
- GI50 [25]: > 100 µM (inactive)
- GI50 [26]: > 100 µM (inactive)
- GI50 [27]: > 100 µM (inactive)
- GI50 [28]: > 100 µM (inactive)
- GI50 [29]: > 100 µM (inactive)
- GI50 [30]: > 100 µM (inactive)
- GI50 [54]: > 100 µM (inactive)
- GI50 [37]: > 100 µM (inactive)
- GI50 [38]: > 100 µM (inactive)
- GI50 [39]: > 100 µM (inactive)
- GI50 [40]: > 100 µM (inactive)
- GI50 [41]: > 100 µM (inactive)
- GI50 [43]: > 100 µM (inactive)
- GI50 [44]: > 100 µM (inactive)
- GI50 [55]: > 100 µM (inactive)
- GI50 [45]: > 100 µM (inactive)
- GI50 [46]: > 100 µM (inactive)
- GI50 [47]: > 100 µM (inactive)
- GI50 [48]: > 100 µM (inactive)
- GI50 [49]: > 100 µM (inactive)
- GI50 [51]: > 100 µM (inactive)
